# Reference: paper PMC4805777 (International Journal for Parasitology: Drugs and Drug …, 2016)
# System: T. cruzi (Strain H1)
# Assay: T. cruzi in vivo assay, second study
# Design: species or system Trypanosoma cruzi
# Conditions: BALB/c mice, 100 mg/kg/day orally, 21 days (method: 20 days)
smiles,measurement,setting,value
O=C(Cn1ccnc1[N+](=O)[O-])NCc1ccccc1 [Benznidazole],"parasitemia, in words",,undetectable
same,"survival, in words",50-day study,all the mice survived
